Measurements from US6670329B2, “Selenocosmia huwena toxin and analgesic uses thereof” (priority 2000, dated 2003).
Several values for one entry are separate records, joined by “and”; a condition that tells them apart may be missing. Equal entries are not always repeated.

Tests used:
New Zealand rabbits = details: rabbit, in vivo
[1] = test system: low-voltage-activated Ca2+ channel; assay: Ca2+ channel inhibition assay, low-voltage-activated channel; format: cell-based
Method: (§1) Ca^2+ channel Inhibition Assay. […] Cells were cultured in 90% Dulbecco's modified Eagle's medium (DMEM) with 10% newborn calf serum, hypoxanthine aminopterin thymidine supplement and penicillin-streptomycin. Cells were transferred to plates for electrophysiological experiments and cultured with 1% calf serum and […] DMEM. Prostaglandin E1 (10 μM) and 3-isobutyl-1-methylxanthine (50 μM) were added to the medium. Macroscopic Ca^2+ channel currents (filtered at 10 kHz, digitized at […] with a EPC-9 patch clamp amplifier, HEKA Electronics, Germany) were recorded at room temperature using Ba^2+ as the charge carrier. Cells were held at −40 mV potential and then depolarized to 0 mV. […] Inhibition was dose dependent. The EC50 for inhibition was approximately 100 nM (EC50≈100 nM). HWAP-I is highly specific for this channel as the low-voltage-activated Ca^2+ channel was unaffected.

rats = assay: rat tail flick pain threshold, subarachnoid space administration; format: in vivo; details: for increase of pain threshold: in an hour
Method: The method was testing using the rat experimental system. After anesthesia, the neck skin of a rat was cut. The occcipital membrane was exposed and a hole with 1 mm diameter was made with #5 needle. […] The insertion position of the tube was later confirmed by anatomization after experiment.
Assays were performed in 1-3 days after the operation. 28 rats (130-230 g), of either gender, whose basic pain thresholds were within 2-4 seconds, were chosen and divided randomly into four groups of seven rats.

Sprague-Dawley rats = details: rat, in vivo
Method: Adult Sprague-Dawley rats were anesthetized with 2% sodium pentobarbital (40 mg/kg, ip.). The neck skin was cut to expose the occipital membrane. HWAP-I, formulated in normal saline, was administered by a PE-10 polyethylene tube (14 cm) inserted into the epidural space (depth of insert: 7 cm) to the site of intumescence at the rats' waist. The insertion position of the tube was confirmed by anatomization after the experiment.
Pain tolerance assays were performed 1-4 days after the operation. A healthy rat was put into a fixed canister with its tail drooping from the bottom of the vessel. There were three spots on the tail labeled for irradiation. The intensity of light was adjusted so that the tail flick latency (TFL) of rat was within 2-4 seconds. The average of TFLs determined three times before drug treatment was deemed the baseline pain threshold of the rat. HWAP-I was administered to the rat using the inserted tube. After 20 minutes, the pain threshold was determined. The analgesic effect (AE) was calculated according the following formula: [formula]
wherein Tp is the TLF post-drug treatment, and TB is the baseline pain threshold.
The upper limit of the increased rate of pain threshold was 200% in order to avoid hurting the skin of rat-tail, e.g.., when the baseline pain threshold was 3 seconds. Irradiation was stopped as soon as the TFL exceeded 9 seconds.
54 rats (160-220 g), of either gender, whose TB basic pain thresholds were within 3-4 seconds, were chosen and divided randomly into six groups of nine rats. The rats in each group were treated with HWAP-I at a dose of 120 μg/kg, 180 μg/kg, 240 μg/kg, 300 μg/kg, 360 μg/kg respectively and with normal saline in control group.

[2] = test system: high-voltage-activated Ca2+ channel expressed in prostaglandin E1 differentiated NG108-15 cells; assay: Ca2+ channel inhibition assay (patch clamp, Ba2+ as charge carrier); format: cell-based
Method: as §1

[3] = test system: mouse phrenic nerve-diaphragm preparation; assay: mouse phrenic nerve-diaphragm assay for inhibition of neuromuscular transmission

NH2-Ala-Cys-Lys-Gly-Val-Phe-Asp-Ala-Cys-Thr-Pro-Gly-Lys-Asn-Glu-Cys -Cys-Pro-Asn-Arg-Val-Cys-Ser-Asp-Lys-His-Lys-Trp-Cys-Lys-Trp-Lys-Leu-COOH (H-ACKGVFDACTPGKNECCPNRVCSDKHKWCKWKL-OH; cysteine pairing not given here) [HWAP-I]
analgesic effect in formalin pain model (New Zealand rabbits): potent and robust analgesic effect
duration of the analgesic effect (New Zealand rabbits): 5 to 6 h
toxic side effects (New Zealand rabbits): no obvious toxic side effects were observed
effect on low-voltage-activated Ca2+ channel [1]: unaffected
duration of analgesic effect compared with morphine hydrochloride (5 μg/kg) (rats; subarachnoid): longer than that of morphine
increase of pain threshold (rats; subarachnoid, 1.5 μg/kg): 40-50%
duration of analgesic effect (rats; subarachnoid, 3.0 μg/kg): over 3 hours
increase of pain threshold (rats; subarachnoid, 3.0 μg/kg): 100%
adverse effects (rats; subarachnoid, 8 μg/kg, most restored to normal without sequela): becoming ataxic in the quarters
analgesic effect (rats; subarachnoid, 0.6, 1.5, 3.0 μg/kg): had analgesic effects
adverse effects (Sprague-Dawley rats): ataxia in the quarters
analgesic effect (Sprague-Dawley rats): had analgesic effects
duration time of analgesic effect (Sprague-Dawley rats): over 3 hours
increase of pain threshold (Sprague-Dawley rats): 50-70% and 100%
inhibition of the Ca2+ current ([2]; 10 μM, held at −40 mV, depolarized to 0 mV): potent inhibitor
EC50 ([2]; NG108-15 cells, room temperature, read-out: EC50 for inhibition of Ca2+ current): ~100 nM
duration of block of neuromuscular transmission ([3]; 1·10^−5 g/ml): 14.3 ± 3.2 min
effect on indirect twitch response ([3]; electrical stimulation of phrenic nerve): inhibition of the indirect twitch response

CN1CC[C@]23c4c5ccc(O)c4O[C@H]2[C@@H](O)C=C[C@H]3[C@H]1C5.Cl [morphine, morphine hydrochloride, reference compound]
analgesic effect decreased from maximum to, within a single hour (Sprague-Dawley rats): 50%
